Consider two compounds from patent US20220204457A1, “ARGININE GINGIPAIN INHIBITORS” (Cortexyme, Inc., priority 2019, published 2022).

Where only a bound is given, the exact number is not on record here.

In series [1] the target is cathepsin V (Homo sapiens, UniProt O60911). Nature of the series: cathepsin screen. Type of series: biochemical.
The target in series [2] is cathepsin B (Homo sapiens, UniProt P07858). Kind of series: cathepsin screen. The class given is biochemical. The procedure: The method can also be used to assay enzymes including Kgp, trypsin, and cathepsins such as cathepsin B. For Kgp, the substrate can be succinyl-Ala-Phe-Lys-AMC. For trypsin, the buffer can contain 10 mM Tris and 10 mM CaCl2 (pH 8.0), and the substrate can be Z-Gly-Gly-Arg-AMC. For cathepsin B, the buffer can contain 50 mM sodium phosphate, 1 mM EDTA, and 10 mM 2-mercaptoethanol (pH 6.25), and the substrate can be Z-Arg-Arg-AMC.

Series [3] concerns the target cathepsin L (Homo sapiens, UniProt P07711). Nature of the series: cathepsin screen. The class given is biochemical.
Series [4] has as its target T1, cathepsin F (Homo sapiens, UniProt Q9UBX1).
T1 sequence (Q9UBX1 271-484): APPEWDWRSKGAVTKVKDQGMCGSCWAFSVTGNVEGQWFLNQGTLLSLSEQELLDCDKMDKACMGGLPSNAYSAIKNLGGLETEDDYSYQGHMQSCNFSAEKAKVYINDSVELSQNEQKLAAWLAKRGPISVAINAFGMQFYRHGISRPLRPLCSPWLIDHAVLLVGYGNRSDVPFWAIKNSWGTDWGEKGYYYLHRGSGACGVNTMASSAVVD
Nature of the series: cathepsin screen. Type of series: biochemical.

Series [5] concerns the target T2, cathepsin H (Homo sapiens, UniProt P09668).
T2 sequence (P09668 98-335): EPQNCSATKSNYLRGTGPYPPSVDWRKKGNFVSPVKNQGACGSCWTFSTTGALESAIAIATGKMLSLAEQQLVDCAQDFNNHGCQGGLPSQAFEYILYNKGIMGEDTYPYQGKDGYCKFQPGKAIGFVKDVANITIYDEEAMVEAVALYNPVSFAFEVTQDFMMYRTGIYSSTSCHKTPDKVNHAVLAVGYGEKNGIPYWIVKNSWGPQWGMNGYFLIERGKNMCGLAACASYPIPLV
Nature of the series: cathepsin screen. The class given is biochemical.

Series [6] concerns the target cathepsin S (Homo sapiens, UniProt P25774). Kind of series: cathepsin screen. The class given is biochemical.
Series [7] concerns the target T3, cathepsin K (Homo sapiens, UniProt P43235).
T3 sequence (P43235 115-329): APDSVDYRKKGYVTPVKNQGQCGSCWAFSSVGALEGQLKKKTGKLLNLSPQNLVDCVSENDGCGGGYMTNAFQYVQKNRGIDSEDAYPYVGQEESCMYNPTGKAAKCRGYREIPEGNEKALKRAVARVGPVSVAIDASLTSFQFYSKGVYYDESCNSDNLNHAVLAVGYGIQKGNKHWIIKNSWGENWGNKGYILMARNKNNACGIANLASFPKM
Kind of series: cathepsin screen. The class given is biochemical.

For series [8] the following is noted: oral administration of RTV 15 minutes prior to Kyt-36; from U.S. Pat. No. 9,758,473; cited from earlier work.

Chain of cathepsin V (O60911 114-334): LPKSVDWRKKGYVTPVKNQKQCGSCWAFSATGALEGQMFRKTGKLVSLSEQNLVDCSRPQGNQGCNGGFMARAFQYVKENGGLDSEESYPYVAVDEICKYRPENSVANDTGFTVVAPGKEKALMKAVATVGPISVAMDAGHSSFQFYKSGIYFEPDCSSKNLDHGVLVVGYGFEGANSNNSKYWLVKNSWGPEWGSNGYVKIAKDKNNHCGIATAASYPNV
Chain of cathepsin S (P25774 115-331): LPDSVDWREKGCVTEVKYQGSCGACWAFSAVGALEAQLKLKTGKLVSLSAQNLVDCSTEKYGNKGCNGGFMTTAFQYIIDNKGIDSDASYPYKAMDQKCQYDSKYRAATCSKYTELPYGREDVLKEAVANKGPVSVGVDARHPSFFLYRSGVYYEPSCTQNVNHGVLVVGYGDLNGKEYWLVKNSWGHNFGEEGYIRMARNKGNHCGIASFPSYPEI
Chain of cathepsin L (P07711 114-333): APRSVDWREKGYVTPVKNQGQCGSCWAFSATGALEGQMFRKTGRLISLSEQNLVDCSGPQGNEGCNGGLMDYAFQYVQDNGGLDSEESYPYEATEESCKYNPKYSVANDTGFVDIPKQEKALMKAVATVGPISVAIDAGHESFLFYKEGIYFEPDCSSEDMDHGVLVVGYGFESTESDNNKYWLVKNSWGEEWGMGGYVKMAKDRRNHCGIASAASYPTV

One may read the IC50 as the concentration that gives 50% inhibition. Lower therefore signals inhibition by little substance. In the case of `COC(C)(C)C(=O)N[C@@H](CCCNC(=N)N)C(=O)COC(C(F)(F)F)C(F)(F)F` [Compound 1, (S)-N-(6-guanidino-1-((1,1,1,3,3,3-hexafluoropropan-2-yl)oxy)-2-oxohexan-3-yl)-2-methoxy-2-methylpropanamide], the IC50 in series [1], in series [2], in series [3], in series [4], in series [5] and in series [6] was greater than 10 µM throughout. In series [7], this compound yielded an IC50 greater than 10 µM.

Consider `CN(NC(=O)CC[C@H](NC(=O)OCc1ccccc1)C(=O)N[C@@H](CCCCN)C(=O)C(=O)NCc1ccccc1)c1ccccc1` [Kyt-36], for which the half-life entry in series [8] is on record as “increases the half-life”.
